Experimental data from patent publication US4273869A, “Cystic fibrosis detection method” (The Regents of the University of Minnesota, priority 1979, dated 1981).

Tested on: fibroblasts from CF subjects, heterozygote carriers and controls
Assay: O2 consumption of skin fibroblast suspensions measured polarographically, with electron transport inhibitors
Type: cell-based, human
Protocol: Skin fibroblast strains from the upper arm were obtained from subjects with CF and age- and sex-matched controls and from obligate CF heterozygote parents and their age- and sex-matched controls. Cells were stored in liquid nitrogen at early passages and thawed for use as needed. In all but a few experiments, strains were passage matched. For O2 consumption studies and mitochondrial preparations, monolayers were grown in 285×115 mm roller bottles (Bellco Glass, N.J.). For NADH dehydrogenase studies, monolayers were grown in 75 cm^2 flasks (Falcon, Oxnard, Ca.). Monolayers were cultured in Eagle's minimal essential medium with Earle's salts plus L-glutamine (K. C. Biologicals, Inc., Lenexa, Kans.), supplemented with 10 percent fetal calf serum, 100 units per ml of penicillin, and 100 μg/ml of streptomycin (Gibco, Grand Island, N.Y.). The cultures were maintained at 37° in 95 percent air-5 percent CO2 atmosphere. Cells were harvested with trypsin-EDTA [(1:250 tryspin+0.2 g EDTA/1 (Gibco, Grand Island, N.Y.)].
Confluent monolayers of fibroblasts as prepared in Example 1 were harvested by trypsin-EDTA digestion. Cells were pelleted by centrifugation at 600×g for 5 min, washed with 10 ml of cold Hank's Balanced Salt Solution (HBSS) containing 0.1 mg/ml bovine serum albumin and 10 mg/ml dextrose, pH 7.4. 100 μl aliquots of the washed cell suspension were taken for cell counting using a ZBI Coulter Counter. The washed cells were again pelleted by centrifugation and resuspended in 1 ml cold HBSS. O2 consumption was measured polarographically on a cell suspension of 1×10^7 cells in a final volume of 3 ml by an O2 electrode system (Clark model 53, Yellow Springs Instruments, Ohio). […] In these experiments the baseline O2 uptake rate was determined for each cell line. Prior to removing the cells from the electrode chamber, 100 μl of 100 μ M rotenone were added and O2 consumption recorded. […]
The change in O2 consumption rate caused by rotenone was recorded as percent of initial O2 consumption rate. Each point represents percent inhibition measured on one cell strain.

For `C=C(C)[C@H]1Cc2c(ccc3c2O[C@@H]2COc4cc(OC)c(OC)cc4[C@@H]2C3=O)O1` [rotenone], which “Inhibition of O2 consumption (change in O2 consumption rate as percent of initial rate)” value (100 μl of 100 μM rotenone added to 1×10^7 cells in 3 ml, all cell strains tested) is on record?
Its value is “inhibited O2 consumption in all cell strains tested”.

What about the “Relative inhibitory effect on O2 consumption among genotypes” value (100 μl of 100 μM rotenone, CF, HZ (carrier) and control fibroblast strains, FIG. 5) of the same compound?
Its value is “CF>HZ>controls”.

What about the “O2 consumption after treatment with the inhibitor, compared between genotypes” value (cells treated with rotenone, CF subjects, carriers, controls) of the same compound?
The value was “cells from cystic fibrosis subjects and carriers consume equal amounts of oxygen, as do controls”.
